The record followed here is ChEMBL document CHEMBL1201862, “PubChem BioAssay data set” (2004).

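Protocol summary: plate cells (96-well), add compound at 5 concentrations, incubate 48 h, interpolate endpoints linearly. GI50 is the concentration that inhibits growth by half.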 Active and inactive are the calls of the source. No stated cut-off is given here; in the data, active = GI50 up to about 1.1 µM and inactive = higher.

Test systems include BT-549; MCF7; OVCAR-8; A549; HT-29; Hs-578T; Malme-3M; KM12; HCT-15; MOLT-4; LOX IMVI; SK-MEL-5; CAKI-1; HOP-62; NCI/ADR-RES; K562; MDA-MB-435; SNB-75; SR; SK-MEL-28.
Common to all, as to test: NCI anticancer screen, dose series, 48 h

On to `CSc1s[s+]c(SC)c1-c1ccccc1`, for which the GI50 in the test with BT-549 is 13.9 µM (inactive); in the test with MCF7, 17 µM (inactive); with OVCAR-8, 15.7 µM (inactive); in the test on A549, 28.1 µM (inactive); in the test with HT-29, 17.5 µM (inactive); in the test with Hs-578T, 25.4 µM (inactive). The GI50 is 11.3 µM (inactive) with Malme-3M; 16 µM (inactive) in the test with KM12; 16.4 µM with HCT-15; 46.1 µM (inactive) in the test on MOLT-4; 25.9 µM (inactive) with LOX IMVI; 15.7 µM (inactive) in the test with SK-MEL-5. Moreover, the GI50 with CAKI-1 is 17.1 µM (inactive); in the test with HOP-62 it was 14.6 µM (inactive); in the test with NCI/ADR-RES, 18.7 µM (inactive); with K562, 20.2 µM (inactive); in the test on MDA-MB-435, 18.9 µM (inactive).
With `O=c1[nH]nc(-c2ccccc2)c2[nH]c(-c3ccccc3)cc12`, the GI50 in the test on BT-549 is > 100 µM (inactive); in the test on OVCAR-8, > 100 µM (inactive); in the test with A549, > 100 µM (inactive); in the test with HT-29, 12.2 µM (inactive); with Hs-578T, > 100 µM (inactive); in the test with SNB-75, 45.8 µM (inactive). In addition, the GI50 in the test on Malme-3M is > 100 µM (inactive); with KM12, > 100 µM (inactive); with HCT-15, 68.5 µM; with MOLT-4, 39 µM (inactive); in the test on LOX IMVI, > 100 µM (inactive); in the test with CAKI-1 it was > 100 µM (inactive). The GI50 is > 100 µM (inactive) in the test with HOP-62; > 100 µM (inactive) with NCI/ADR-RES; 38.8 µM (inactive) in the test with SR; 50.8 µM (inactive) in the test on K562; > 100 µM (inactive) in the test on MDA-MB-435.
With `CC(=O)Nc1c(S(=O)(=O)c2ccccc2)c(C)c(C)n1Cc1ccccc1`, the GI50 with BT-549, in the test on SK-MEL-28, with OVCAR-8, with A549, in the test with HT-29 and with Hs-578T was > 100 µM (inactive) in each case. In addition, the GI50 is > 100 µM (inactive) with SNB-75; > 100 µM (inactive) in the test on Malme-3M; 49.2 µM (inactive) with KM12; more than 100 µM with HCT-15; > 100 µM (inactive) in the test with MOLT-4; 83.8 µM (inactive) in the test with SK-MEL-5. In addition, the GI50 is > 100 µM (inactive) with CAKI-1; > 100 µM (inactive) in the test on NCI/ADR-RES; > 10 µM (inactive) in the test with SR; > 100 µM (inactive) in the test on K562; > 100 µM (inactive) with MDA-MB-435.
On to `C=Cc1ccccc1C1C(C(=O)OCC)=C(C)N=C2OC(C(=O)OC)C(=O)N21` (stereo unspecified), for which the GI50 in the test on BT-549, with MCF7, in the test with SK-MEL-28, in the test on OVCAR-8, in the test with A549 and with HT-29 was > 100 µM (inactive) in each case. Also, the GI50 in the test on SNB-75 was > 100 µM (inactive); in the test on Malme-3M, > 100 µM (inactive); in the test on KM12 it was > 100 µM (inactive); with HCT-15 it was more than 100 µM; with MOLT-4, > 100 µM (inactive); in the test on LOX IMVI, > 100 µM (inactive). In addition, the GI50 with SK-MEL-5, in the test on CAKI-1, in the test on HOP-62, with NCI/ADR-RES, in the test with SR and with K562 was > 100 µM (inactive) throughout. Further, in the test on MDA-MB-435, the GI50 is > 100 µM (inactive).
As for `Cc1cc(C)nc(NS(=O)(=O)c2ccc(NC(=O)NC(F)(F)F)cc2)n1`, the GI50 with BT-549, in the test with SK-MEL-28, in the test with OVCAR-8, with A549, in the test with HT-29 and with Hs-578T was > 100 µM (inactive) each time. Besides, the GI50 in the test on SNB-75 is > 100 µM (inactive); in the test on HCT-15 it was more than 100 µM; with MOLT-4, > 100 µM (inactive); in the test on LOX IMVI, > 100 µM (inactive); in the test on SK-MEL-5, > 100 µM (inactive); with CAKI-1, 1.95 µM (inactive). The GI50 in the test with NCI/ADR-RES, in the test with SR, with K562 and in the test on MDA-MB-435 was > 100 µM (inactive) each time.
